Measured values: patent US4496546A, “Erythromycin D and esters thereof” (Pfizer Inc., priority 1982, dated 1985)
Values after ≈ are worked out from the molar mass of the structure shown. Where two headings read alike, the source gives them in different places.

How the values were obtained:
[1] = test system: Staph aureus 005; assay: in vivo oral protection against acute experimental infection in mice; settings: read-out: PD50
From the text: (§1) In determining such activity, acute experimental infections are produced in mice by the intraperitoneal inoculation of the mice with a standardized culture of the test organism suspended in 5 percent hog gastric mucin. Infection severity is standardized so that the mice receive at least one LD100 dose of the organism (LD100 : the minimum inoculum of organism required to consistently kill 100 percent of the infected, nontreated control mice). The test compound is orally administered at various dosage levels to groups of infected mice at 1/2, 4 and 24 hours post infection. At the end of the test, the activity of the mixture is assessed by counting the number of survivors among treated animals at a given dose. Activity is expressed as the percentage of animals which survive at a given dose, or calculated as a PD50 (dose which protects 50% of the animals from infection).

[2] = test system: Strep pyogenes 203; assay: as above; settings: Mus musculus, read-out: PD50
From the text: as §1

[3] = test system: Hem. influ. 036; assay: in vitro MIC, tube serial dilution, 24 hour incubation; format: cell-based
Method: (§2) Table I summarizes the results of in vitro MIC (minimum inhibitory concentration) tests. For this standard test, each organism is inoculated into a series of tubes containing nutrient medium and serially diluted concentrations of the antibiotic. The MIC is the lowest concentration of antibiotic which prevents growth of the microorganism over the 24 hour incubation test period.

[4] = test system: Staph. epid. 111; assay: as above; format: cell-based
Method: as §2

[5] = test system: Staph. aureus 400; assay: as above; format: cell-based
Method: as §2

[6] = test system: E. Coli 470; assay: as above; format: cell-based; settings: Escherichia coli
Method: as §2

[7] = test system: Staph. aureus 005; assay: as above; format: cell-based
Method: as §2

[8] = test system: Strep. pyog. 203; assay: as above; format: cell-based
Method: as §2

[9] = test system: Staph. aureus 052; assay: as above; format: cell-based
Method: as §2

[10] = test system: Strep. pneum. 012; assay: as above; format: cell-based
Method: as §2

[11] = test system: Strep. faec. 006; assay: as above; format: cell-based
Method: as §2

[12] = test system: Neiss. Sicca 000; assay: as above; format: cell-based
Method: as §2

[13] = test system: Hem. influ. 012; assay: as above; format: cell-based
Method: as §2

[14] = absorption via the oral route; format: in vivo
[15] = test system: Past. mult. 001; assay: in vitro MIC, tube serial dilution, 24 hour incubation; format: cell-based
Method: as §2

[16] = test system: sensitive bacteria; assay: in vivo activity against infections by sensitive bacteria (summary statement); settings: mice, oral
From the text: as §1

[17] = test system: Gram-positive and Gram-negative bacteria; assay: in vitro antibacterial activity (summary statement); format: cell-based; settings: medium spectrum of Gram-positive and Gram-negative bacteria
Method: as §2

[18] = stability at acid pH; format: physicochemical; settings: acid pH (2.5 to 5.0); unlike erythromycin A
[19] = Staphylococcus aureus, mice, Staph aureus 005, oral dosage 1/2, 4 and 24 hours post infection
[20] = mice, Strep pyogenes 203, oral dosage 1/2, 4 and 24 hours post infection
[21] = Staph. epid. 111, read-out: MIC
[22] = Staphylococcus aureus, 400, 24 h
[23] = Staphylococcus aureus, 24 h, Staph. aureus 005, read-out: MIC
[24] = Strep. pyog. 203, read-out: MIC
[25] = Staphylococcus aureus, 24 h, Staph. aureus 052, read-out: MIC
[26] = Strep. pneum. 012, read-out: MIC
[27] = Strep. faec. 006, read-out: MIC
[28] = Neiss. Sicca 000, read-out: MIC
[29] = Staphylococcus aureus, 24 h, Staph. aureus 400, read-out: MIC

In the case of `CCC1OC(=O)C(C)C(OC2CC(C)(OC(C)=O)C(OC(C)=O)C(C)O2)C(C)C(OC2OC(C)CC(N(C)C)C2O)C(C)(O)CC(C)C(=O)C(C)C(O)C1C` (centres unmarked) [3",4"-Di-O-acetylerythromycin D], the ED50 [1, 19] is reported as 27 mg/kg, the ED50 [2, 20] is reported as 15 mg/kg and the MIC ([3]; Hem. influ. 036, read-out: MIC) is reported as > 50 µg/mL. The MIC [4, 21] was 0.39 µg/mL (≈ 0.495 µM), the MIC [5, 22] was 50 µg/mL (≈ 63.5 µM) and the MIC ([6]; E. Coli 470, read-out: MIC) was 12.5 µg/mL (≈ 15.9 µM). For the same molecule, the MIC [7, 23] was 1.56 µg/mL (≈ 1.98 µM), the MIC [8, 24] was 0.1 µg/mL (≈ 0.127 µM) and the MIC [9, 25] was 3.12 µg/mL (≈ 3.96 µM). It also gave an MIC [10, 26] of 0.1 µg/mL (≈ 0.127 µM), an MIC [11, 27] of 1.56 µg/mL (≈ 1.98 µM) and an MIC [12, 28] of 25 µg/mL (≈ 31.7 µM). The MIC ([13]; Hem. influ. 012, read-out: MIC) was > 50 µg/mL and the “absorption via the oral route” value [14] was “high degree of absorption”.
In the case of `CCC(=O)OC1C(C)OC(OC2C(C)C(=O)OC(CC)C(C)C(O)C(C)C(=O)C(C)CC(C)(O)C(OC3OC(C)CC(N(C)C)C3O)C2C)CC1(C)OC(C)=O` (centres unmarked) [3"-O-Acetyl-4"-O-propionylerythromycin D], the MIC ([3]; Hem. influ. 036, read-out: MIC) is reported as > 50 µg/mL, the MIC [4, 21] is reported as 0.2 µg/mL (≈ 0.249 µM) and the MIC ([15]; Past. mult. 001, read-out: MIC) is reported as 12.5 µg/mL (≈ 15.6 µM). It also gave an MIC [5, 29] of 12.5 µg/mL (≈ 15.6 µM), an MIC ([6]; E. Coli 470, read-out: MIC) of 12.5 µg/mL (≈ 15.6 µM) and an MIC [7, 23] of 0.39 µg/mL (≈ 0.486 µM). It also gave an MIC [8, 24] of 0.05 µg/mL (≈ 0.0623 µM), an MIC [9, 25] of 0.78 µg/mL (≈ 0.973 µM) and an MIC [10, 26] of 0.05 µg/mL (≈ 0.0623 µM). The MIC [11, 27] was 0.78 µg/mL (≈ 0.973 µM), the MIC [12, 28] was 12.5 µg/mL (≈ 15.6 µM) and the MIC [13] was 50 µg/mL (≈ 62.3 µM).
In the case of `CCC1OC(=O)C(C)C(OC2CC(C)(O)C(OC(C)=O)C(C)O2)C(C)C(OC2OC(C)CC(N(C)C)C2O)C(C)(O)CC(C)C(=O)C(C)C(O)C1C` (centres unmarked) [4"-O-Acetylerythromycin D], the ED50 [1, 19] is reported as 139 mg/kg, the ED50 [2, 20] is reported as 40 mg/kg and the MIC ([3]; Hem. influ. 036, read-out: MIC) is reported as > 50 µg/mL. The MIC [4, 21] was 0.78 µg/mL (≈ 1.05 µM), the MIC ([15]; Past. mult. 001, read-out: MIC) was 25 µg/mL (≈ 33.5 µM) and the MIC [5, 29] was > 50 µg/mL. For the same molecule, the MIC [6] was 6.25 µg/mL (≈ 8.38 µM), the MIC [7, 23] was 3.12 µg/mL (≈ 4.18 µM) and the MIC [8, 24] was 0.2 µg/mL (≈ 0.268 µM). It also gave an MIC [9, 25] of 6.25 µg/mL (≈ 8.38 µM), an MIC [10, 26] of 0.39 µg/mL (≈ 0.523 µM) and an MIC [11, 27] of 3.12 µg/mL (≈ 4.18 µM). For the same molecule, the MIC [12, 28] was 25 µg/mL (≈ 33.5 µM) and the MIC ([13]; Hem. influ. 012, read-out: MIC) was 50 µg/mL (≈ 67 µM).
Work on `CC[C@H]1OC(=O)[C@H](C)[C@@H](O[C@H]2C[C@@](C)(OC)[C@@H](O)[C@H](C)O2)[C@H](C)[C@@H](O[C@@H]2O[C@H](C)C[C@H](N(C)C)[C@H]2O)[C@](C)(O)C[C@@H](C)C(=O)[C@H](C)[C@@H](O)[C@]1(C)O` [Erythromycin A, reference compound] yielded an ED50 [1, 19] of 64 mg/kg and an ED50 [2, 20] of 25 mg/kg.
For `CCC1OC(=O)C(C)C(OC2CC(C)(O)C(O)C(C)O2)C(C)C(OC2OC(C)CC(N(C)C)C2O)C(C)(O)CC(C)C(=O)C(C)C(O)C1C` (centres unmarked) [Erythromycin D], the ED50 ([1]; Staphylococcus aureus, 005, po) was 57 mg/kg, the ED50 ([2]; po) was 15 mg/kg and the MIC [3] was 50 µg/mL (≈ 71 µM). The MIC [4] was 0.2 µg/mL (≈ 0.284 µM), the MIC [15] was 6.25 µg/mL (≈ 8.88 µM) and the MIC [5, 22] was 6.25 µg/mL (≈ 8.88 µM). For the same molecule, the MIC [6] was 3.12 µg/mL (≈ 4.43 µM), the MIC ([7]; Staphylococcus aureus, 005, 24 h) was 0.39 µg/mL (≈ 0.554 µM) and the MIC [8] was 0.025 µg/mL (≈ 0.0355 µM). It also gave an MIC ([9]; Staphylococcus aureus, 052, 24 h) of 0.39 µg/mL (≈ 0.554 µM), an MIC [10] of 0.025 µg/mL (≈ 0.0355 µM) and an MIC [11] of 0.39 µg/mL (≈ 0.554 µM). For the same molecule, the MIC [12] was 6.25 µg/mL (≈ 8.88 µM), the MIC [13] was 25 µg/mL (≈ 35.5 µM) and the in vivo activity [16] was “exhibit in vivo activity”. The in vitro activity [17] was “exhibit in vitro activity” and the “stability at acid pH” value [18] was “fairly stable”.
